The source of these data is patent publication US10370727B2, “Point mutations in TRK inhibitor-resistant cancer and methods relating to the same” (Loxo Oncology, Inc., priority 2015, dated 2019).

Common to all, as to type: cell-based
Assay [1] has as its system TRKB and ERK1/2 activation in NIH3T3 cells expressing TRIM24-NTRK2 fusions. The assay can be described thus: Western blot analysis of NIH3T3 cells expressing TRIM24-NTRK2 fusions. The note with it: 2 hours. The protocol: FIG. 11 is a photograph of a Western blot analysis of NIH3T3 cells treated with the indicated concentrations of (S)—N-(5-((R)-2-(2,5-difluorophenyl)pyrrolidin-1-yl)pyrazolo[1,5-a]pyrimidin-3-yl)-3-hydroxypyrrolidine-1-c[…] (Cmpd A) for 2 hours.
Ba/F3 cells stably expressing MPRIP-NTRK1 or TRIM24-NTRK2 were treated overnight with […] N-Ethyl-N-nitrosourea (ENU), pelleted, resuspended in fresh media, and distributed in 96-well plates in 200 μL media supplemented with (S)—N-(5-((R)-2-(2,5-DIFLUOROPHENYL)PYRROLIDIN-1-YL)PYRAZOLO[1,5-A]PYRIMIDIN-3-YL)-3-HYDROXYPYRROLIDINE-1-C[…] (100, 250, and 500 nM). […] The contents of outgrown wells were expanded in 12-well plates in media supplemented with (S)—N-(5-((R)-2-(2,5-DIFLUOROPHENYL)PYRROLIDIN-1-YL)PYRAZOLO[1,5-A]PYRIMIDIN-3-YL)-3-HYDROXYPYRROLIDINE-1-C[…] at the same concentration as in the initial 96-well plate. At confluence, cells were collected and genomic DNA was extracted. The NTRK1 and NTRK2 kinase region was PCR-amplified and sequenced. Plasmids encoding MPRIP-NTRK1 and TRIM24-NTRK2 mutations were generated with QuickChange site-directed mutagenesis and confirmed by DNA sequencing. Ba/F3 cells and NIH3T3 cells expressing MPRIP-NTRK1 mutants were generated by infecting Ba/F3 and NIH3T3 parental cells with lentivirus encoding MPRIP-NTRK1 mutation followed by selection with puromycin.
Background: Immunoblotting shows a protein as a band on a membrane.

In assay [2] the test system is cells expressing a TRIM24-NTRK2 fusion protein including TrkB inhibitor resistance mutations. Description: Proliferation (percent of control) of cells expressing mutant TRIM24-NTRK2 fusion. The note with it: Example 3; TrkB substitutions V601G, G623S, R630K. The protocol:
N-ethyl-N-nitrosourea (ENU)-exposed Ba/F3-MPRIP-NTRK1 and Ba/F3-TRIM24-NTRK2 cells were used to generate mutations permitting growth of Ba/F3 cells in the absence of IL-3 despite the presence of 100, 250, or 500 nM (S)—N-(5-((R)-2-(2,5-difluorophenyl)pyrrolidin-1-yl)pyrazolo[1,5-a]pyrimidin-3-yl)-3-hydroxypyrrolidine-1-c[…]. The Mutations identified by genomic DNA sequencing in the initial screen were validated by cloning the mutation-bearing cDNAs back into Ba/F3 cells to evaluate their sensitivity to (S)—N-(5-((R)-2-(2,5-DIFLUOROPHENYL)PYRROLIDIN-1-YL)PYRAZOLO[1,5-A]PYRIMIDIN-3-YL)-3-HYDROXYPYRROLIDINE-1-C[…] using both proliferation assays and TRK phosphorylation by immunoblot analyses. Modeling of the mutations was performed by mapping of the amino acid substitutions onto a drug-bound TRK kinase domain crystal structure.
Ba/F3 cells stably expressing MPRIP-NTRK1 or TRIM24-NTRK2 were treated overnight with […] N-Ethyl-N-nitrosourea (ENU), pelleted, resuspended in fresh media, and distributed in 96-well plates in 200 μL media supplemented with (S)—N-(5-((R)-2-(2,5-DIFLUOROPHENYL)PYRROLIDIN-1-YL)PYRAZOLO[1,5-A]PYRIMIDIN-3-YL)-3-HYDROXYPYRROLIDINE-1-C[…] (100, 250, and 500 nM). […]

Assay [3] deals with TRKA and ERK1/2 activation in NIH3T3 cells expressing MPRIP-NTRK1 fusions. The assay can be described thus: Western blot analysis of NIH3T3 cells expressing MPRIP-NTRK1 fusions. The note with it: 2 hours.
The subject of assay [4] is cells expressing a MPRIP-NTRK1 fusion protein including Trk inhibitor resistance mutations. Description: Proliferation (percent of control) of cells expressing mutant MPRIP-NTRK1 fusion. The note with it: TrkA substitutions V573M, F589L, G667S.
Procedure: In the genetic screen cDNAs harboring the MPRIP-NTRK1 oncogene were introduced into Ba/F3 cells. The Ba/F3 cells were treated with the mutagen, 100 μg/mL N-ethyl-N-nitrosourea (ENU; Sigma Aldrich, St. Louis, Mo.), overnight. […] At confluence, the cells were collected and genomic DNA was extracted. The NTRK1 kinase region was amplified and the PCR products were purified and sequenced. A plasmids encoding MPRIP-NTRK1 mutations were generated with QuickChange site-directed mutagenesis according to the manufacturer's instructions using a sequence encoding a wildtype MPRIP-NTRK1 fusion protein as a template. Each mutation was confirmed by DNA sequencing. The Ba/F3 cells and NIH353 cells expressing MPRIP-NTRK1 mutants were generated by infecting Ba/F3 and NIH353 parental cells with lentivirus encoding the mutation MPRIP-NTRK1 fusion proteins, followed by selection with puromycin.

Structures can show the parent of a compound that is named as a salt.

Take `O=C(Nc1cnn2ccc(N3CCC[C@@H]3c3cc(F)ccc3F)nc12)N1CC[C@H](O)C1` [(S)—N-(5-((R)-2-(2,5-difluorophenyl)pyrrolidin-1-yl)pyrazolo[1,5-a]pyrimidin-3-yl)-3-hydroxypyrrolidine-1-carboxamide sulfate]: the “TRKB and ERK1/2 activation, sensitivity to inhibition (FIG. 11)” value is “resistant” in assay [1] (NIH3T3 cells expressing TRIM24-NTRK2 V601G, G623S or R630K fusions) and “sensitive” in assay [1] (NIH3T3 cells expressing TRIM24-NTRK2 WT fusion). The “resistance of cancer cells having a TRIM24-NTRK2 point mutation (percent of control, FIG. 10)” value in assay [2] was “increased resistance”. Moreover, the “TRKA and ERK1/2 activation, sensitivity to inhibition (FIG. 8)” value is given as “resistant” in assay [3] (NIH3T3 cells expressing MPRIP-NTRK1 V573M, F589L or G667S fusions) and “sensitive” in assay [3] (NIH3T3 cells expressing MPRIP-NTRK1 WT fusion). Moreover, the “resistance of cancer cells having a MPRIP-NTRK1 point mutation (POC, FIG. 4)” value in assay [4] (Example 1, F600L, Y676S) was “increased resistance”. Moreover, the “resistance of cancer cells having a MPRIP-NTRK1 point mutation (percent of control, FIG. 7)” value in assay [4] (Example 3) is on record as “increased resistance”.
